Test results published in the supplement of paper PMC10627819.

Key:
Test in all cases: fitness (endpoint OD595 vs no drug) (fraction); higher = more growth
[1] = test system: S. aureus Newman
How it was run: (§1)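 Fitness compares growth at the stationary-phase transition with the robust mean of no-drug control wells, as a ratio of optical densities. The ratio is capped at 1. Wells of 384-well plates held 30 µl, or 55 µl for S. pneumoniae, inoculated at OD595 0.01. Readings at OD595 every 30 min for 14 h at 37 °C were corrected against the first reading.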

[2] = test system: B. subtilis 168
How it was run: as §1

[3] = test system: S. aureus DSM 20231
How it was run: as §1

[4] = test system: S. pneumoniae D39V
How it was run: as §1
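Also: OD595 on entry to stationary phase over no-drug wells; at most 1.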

CCCCCCCCCC(=O)N[C@@H](Cc1c[nH]c2ccccc12)C(=O)N[C@H](CC(N)=O)C(=O)N[C@@H](CC(=O)O)C(=O)N[C@@H]1C(=O)NCC(=O)N[C@@H](CCCN)C(=O)N[C@@H](CC(=O)O)C(=O)N[C@H](C)C(=O)N[C@@H](CC(=O)O)C(=O)NCC(=O)N[C@H](CO)C(=O)N[C@@H]([C@H](C)CC(=O)O)C(=O)N[C@@H](CC(=O)c2ccccc2N)C(=O)O[C@@H]1C [Daptomycin] + N[C@@H]1CONC1=O [Cycloserine D]
fitness
Details	first compound 0.125 µg/mL	first compound 0.25 µg/mL	first compound 0.5 µg/mL	first compound 1 µg/mL	first compound 2 µg/mL
[1], partner 0.375 µg/mL	0.979	0.983	0.983	–	–
[1], partner 0.75 µg/mL	0.996	0.999	≥ 1	–	–
[1], partner 1.5 µg/mL	≥ 1	≥ 1	0.993	–	–
[2], partner 0.125 µg/mL	0.962	0.978	0.945	–	–
[2], partner 0.25 µg/mL	0.903	0.923	0.886	–	–
[2], partner 0.5 µg/mL	0.921	0.989	0.874	–	–
[3], partner 0.375 µg/mL	–	–	0.964	≥ 1	≥ 1
[3], partner 0.75 µg/mL	–	–	0.996	0.983	0.978
[3], partner 1.5 µg/mL	–	–	≥ 1	≥ 1	≥ 1

[2], first compound 1 µg/mL, one replicate
Details	fitness
partner 0.125 µg/mL	0.784
partner 0.25 µg/mL	0.758
partner 0.5 µg/mL	0.737

C[C@H]1COc2c(N3CCN(C)CC3)c(F)cc3c(=O)c(C(=O)O)cn1c23 [Levofloxacin] + CC1=C(C(=O)O)N2C(=O)[C@@H](NC(=O)[C@H](N)c3ccccc3)[C@H]2SC1 [Cephalexin]
fitness, one replicate
Details	first compound 0.001 µg/mL	first compound 0.002 µg/mL	first compound 0.0039 µg/mL	first compound 0.2 µg/mL	first compound 0.4 µg/mL	first compound 0.8 µg/mL
[2], partner 0.25 µg/mL	0.969	0.896	0.836	–	–	–
[2], partner 0.5 µg/mL	0.991	0.91	0.838	–	–	–
[2], partner 1 µg/mL	0.921	0.919	0.868	–	–	–
[4], partner 0.125 µg/mL	–	–	–	0.874	0.758	0.316
[4], partner 0.25 µg/mL	–	–	–	0.91	0.782	0.354
[4], partner 0.5 µg/mL	–	–	–	0.903	0.8	0.369

Details	fitness
[2], first compound 0.0312 µg/mL, partner 0.125 µg/mL	0.0416
[2], first compound 0.0312 µg/mL, partner 0.25 µg/mL	0.0347
[2], first compound 0.0312 µg/mL, partner 0.5 µg/mL	0.036
[2], first compound 0.0625 µg/mL, partner 0.125 µg/mL	0.0518
[2], first compound 0.0625 µg/mL, partner 0.25 µg/mL	0.037
[2], first compound 0.0625 µg/mL, partner 0.5 µg/mL	0.043
[2], first compound 0.125 µg/mL, partner 0.125 µg/mL	0.0423
[2], first compound 0.125 µg/mL, partner 0.25 µg/mL	0.0386
[2], first compound 0.125 µg/mL, partner 0.5 µg/mL	0.0448
[4], first compound 0.1725 µg/mL, partner 2 µg/mL	0.176
[4], first compound 0.1725 µg/mL, partner 4 µg/mL	0.0529
[4], first compound 0.345 µg/mL, partner 2 µg/mL	0.103
[4], first compound 0.345 µg/mL, partner 4 µg/mL	0.001
[4], first compound 0.69 µg/mL, partner 1 µg/mL	0.235
[4], first compound 0.69 µg/mL, partner 2 µg/mL	0.0462
[4], first compound 0.69 µg/mL, partner 4 µg/mL	0.022

C[C@H]1COc2c(N3CCN(C)CC3)c(F)cc3c(=O)c(C(=O)O)cn1c23 [Levofloxacin] + CO[C@@]12[C@H](COC(N)=O)C3=C(C(=O)C(C)=C(N)C3=O)N1C[C@@H]1N[C@@H]12 [Mitomycin C]
fitness, [4]
Details	first compound 0.1725 µg/mL	first compound 0.2 µg/mL	first compound 0.345 µg/mL	first compound 0.4 µg/mL	first compound 0.69 µg/mL	first compound 0.8 µg/mL
partner 0.001075 µg/mL	–	0.883	–	0.777	–	0.422
partner 0.002 µg/mL	0.817	–	0.699	–	0.404	–
partner 0.00215 µg/mL	–	0.871	–	0.769	–	0.362
partner 0.004 µg/mL	0.782	–	0.687	–	0.355	–
partner 0.0043 µg/mL	–	0.78	–	0.699	–	0.331
partner 0.008 µg/mL	0.694	–	0.595	–	0.387	–

CN(C)C(=O)C(CCN1CCC(O)(c2ccc(Cl)cc2)CC1)(c1ccccc1)c1ccccc1 [Loperamide] + CC(=O)NC[C@H]1CN(c2ccc(N3CCOCC3)c(F)c2)C(=O)O1 [Linezolid]
one replicate
Details	fitness
[2], first compound 25 µg/mL, partner 0.0625 µg/mL	0.584
[2], first compound 50 µg/mL, partner 0.0625 µg/mL	0.0437
[2], first compound 100 µg/mL, partner 0.0625 µg/mL	0.0474
[4], first compound 68.57 µg/mL, partner 0.2 µg/mL	0.91
[4], first compound 68.57 µg/mL, partner 0.4 µg/mL	0.884
[4], first compound 68.57 µg/mL, partner 0.8 µg/mL	0.532

Details	fitness
[2], first compound 25 µg/mL, partner 0.125 µg/mL	0.607
[2], first compound 25 µg/mL, partner 0.25 µg/mL	0.066
[2], first compound 25 µg/mL, partner 0.5 µg/mL	0.0361
[2], first compound 50 µg/mL, partner 0.25 µg/mL	0.0362
[2], first compound 50 µg/mL, partner 0.5 µg/mL	0.0318
[2], first compound 100 µg/mL, partner 0.125 µg/mL	0.0357
[2], first compound 100 µg/mL, partner 0.25 µg/mL	0.0269
[2], first compound 100 µg/mL, partner 0.5 µg/mL	0.0353
[4], first compound 17.14 µg/mL, partner 0.2 µg/mL	0.815
[4], first compound 17.14 µg/mL, partner 0.4 µg/mL	0.709
[4], first compound 17.14 µg/mL, partner 0.8 µg/mL	0.414
[4], first compound 20 µg/mL, partner 0.105 µg/mL	0.938
[4], first compound 20 µg/mL, partner 0.21 µg/mL	0.839
[4], first compound 20 µg/mL, partner 0.42 µg/mL	0.652
[4], first compound 34.28 µg/mL, partner 0.2 µg/mL	0.806
[4], first compound 34.28 µg/mL, partner 0.4 µg/mL	0.701
[4], first compound 34.28 µg/mL, partner 0.8 µg/mL	0.367
[4], first compound 40 µg/mL, partner 0.105 µg/mL	0.947
[4], first compound 40 µg/mL, partner 0.21 µg/mL	0.843
[4], first compound 40 µg/mL, partner 0.42 µg/mL	0.58
[4], first compound 80 µg/mL, partner 0.42 µg/mL	0.179

CN(C)C(=O)C(CCN1CCC(O)(c2ccc(Cl)cc2)CC1)(c1ccccc1)c1ccccc1 [Loperamide] + CO[C@@]12[C@H](COC(N)=O)C3=C(C(=O)C(C)=C(N)C3=O)N1C[C@@H]1N[C@@H]12 [Mitomycin C]
[4]
Details	fitness
first compound 17.14 µg/mL, partner 0.002 µg/mL	0.871
first compound 17.14 µg/mL, partner 0.004 µg/mL	0.796
first compound 17.14 µg/mL, partner 0.008 µg/mL	0.662
first compound 20 µg/mL, partner 0.001075 µg/mL	≥ 1
first compound 20 µg/mL, partner 0.00215 µg/mL	≥ 1
first compound 20 µg/mL, partner 0.0043 µg/mL	0.926
first compound 34.28 µg/mL, partner 0.002 µg/mL	0.843
first compound 34.28 µg/mL, partner 0.004 µg/mL	0.8
first compound 34.28 µg/mL, partner 0.008 µg/mL	0.616
first compound 40 µg/mL, partner 0.001075 µg/mL	≥ 1
first compound 40 µg/mL, partner 0.00215 µg/mL	≥ 1
first compound 40 µg/mL, partner 0.0043 µg/mL	0.953
first compound 80 µg/mL, partner 0.001075 µg/mL	0.804
first compound 80 µg/mL, partner 0.00215 µg/mL	0.801

[4], first compound 68.57 µg/mL, one replicate
Details	fitness
partner 0.002 µg/mL	0.814
partner 0.004 µg/mL	0.712
partner 0.008 µg/mL	0.672
